According to patent US9409905B2, “Antibacterial compounds and methods for use” (PTC THERAPEUTICS, INC., priority 2011, dated 2016):

Key:
[1] = test system: Pseudomonas aeruginosa (P. aeruginosa) 27853; assay: Antibacterial activity, MIC (Table 5); format: cell-based; settings: P. aeruginosa 27853, read-out: MIC, 27853
Procedure, shortened: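 Microbroth dilution; MIC (μg/mL) = lowest concentration with no macroscopically visible growth.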

[2] = test system: Neisseria meningitidis (N. meningitidis) 13090; assay: Antibacterial activity, MIC (Table 8); format: cell-based
Procedure, shortened: (§1)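 Compounds are serially diluted in microbroth. Bacteria are then grown under the test conditions, and growth is inspected macroscopically. The MIC is recorded in μg/mL as the lowest concentration without visible growth.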

[3] = test system: A. baumannii MXX2240; assay: Antibacterial activity, MIC, resistant strain (Table 4); format: cell-based; settings: Acinetobacter baumannii, MXX2240; resistant A. baumannii MMX2240, multi-drug resistant clinical isolate; read-out: MIC, MMX2240
Procedure, shortened: (§2)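 Values are minimum inhibitory concentrations in μg/mL from broth microdilution, meaning no macroscopically visible growth at that concentration. Resistant MXX isolates are multi-drug resistant clinical strains.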

[4] = test system: K. pneumoniae MXX1232; assay: as above; format: cell-based; settings: Klebsiella pneumoniae, MXX1232; resistant K. pneumoniae MMX1232, multi-drug resistant clinical isolate; read-out: MIC, MMX1232
Procedure, shortened: as §2

[5] = test system: E. coli LZ3111; assay: Antibacterial activity, MIC, quinolone resistant strain (Table 2); format: cell-based; settings: Escherichia coli, LZ3111, read-out: MIC LZ3111
Procedure, shortened: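 Broth microdilution. Read-out: MIC in μg/mL, taken as lowest concentration with no macroscopically visible growth.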

[6] = test system: E. coli 25922; assay: Antibacterial activity, microbroth dilution MIC (Table 1); format: cell-based, Escherichia coli; settings: Escherichia coli; microbroth dilution; control Gram-negative E. coli 25922 strain; read-out: MIC, 25922
Procedure, shortened: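 Broth microdilution against S. aureus 29213, E. coli 25922 and hypersensitive E. coli BAS849. MIC in μg/mL is the lowest drug concentration preventing macroscopically visible growth under test conditions.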

[7] = test system: E. coli ELZ4251; assay: Antibacterial activity, MIC, multi-drug resistant clinical isolate (Table 3); format: cell-based; settings: Escherichia coli
Procedure, shortened: (§3)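 MIC (μg/mL) read as lowest concentration with no macroscopically visible growth, determined by microbroth dilution.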

[8] = test system: E. coli ELZ4000; assay: as above; format: cell-based; settings: Escherichia coli, ELZ4000, read-out: MIC ELZ4000
Procedure, shortened: as §3

[9] = test system: Acinetobacter baumannii (A. baumannii) BAA747; assay: Antibacterial activity, MIC (Table 4); format: cell-based; settings: A. baumannii BAA747, read-out: MIC, BAA747
Procedure, shortened: as §2

[10] = test system: Klebsiella pneumoniae (K. pneumoniae) 35657; assay: Antibacterial activity, MIC (Table 4); format: cell-based; settings: K. pneumoniae 35657, read-out: MIC, 35657
Procedure, shortened: as §2

[11] = test system: Staphylococcus aureus (S. aureus) 29213; assay: Antibacterial activity, microbroth dilution MIC (Table 1); format: cell-based; settings: microbroth dilution, Gram-positive S. aureus 29213, read-out: MIC, 29213
Procedure, shortened: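 Each strain is exposed to test compound in a microbroth dilution series; visible growth is scored macroscopically, and the lowest growth-free concentration is recorded as MIC in μg/mL.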

[12] = test system: Escherichia coli (E. coli) BAS849; assay: as above; format: cell-based; settings: microbroth dilution, super sensitive Gram-negative E. coli BAS849, read-out: MIC, BAS849
Procedure, shortened: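 MIC (μg/mL) is taken as the lowest concentration with no macroscopically visible growth. Strains tested by microbroth dilution: Gram-positive S. aureus 29213, control Gram-negative E. coli 25922, and super-sensitive E. coli BAS849.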

[13] = test system: Haemophilus influenzae (H. influenzae) 49247; assay: Antibacterial activity, MIC (Table 6); format: cell-based
Procedure, shortened: as §1

[14] = test system: Moraxella catarrhalis (M. catarrhalis) 25238; assay: Antibacterial activity, MIC (Table 7); format: cell-based
Procedure, shortened: as §1

## CCc1c(-c2ccc3c(c2)cc(CNCC2CC2)n3C)[nH]c(=O)c(C(=O)O)c1O.Cl [Cpd 223, 6-(2-((cyclopropylmethylamino)methyl)-1-methyl-1H-indol-5-yl)-5-ethyl-4-hydroxy-2-oxo-1,2-dihydropyridine-3-carboxylic acid hydrochloride]
[1]
  MIC: 3.5 to 12.5 µg/mL
[2]
  MIC: < 1 µg/mL
[3]
  MIC: 1 to 3.5 µg/mL
[4]
  MIC: 12.5 to 150 µg/mL
[5]
  MIC: 1 to 3.5 µg/mL
[6]
  MIC: < 1 µg/mL
[7]
  MIC: 12.5 to 150 µg/mL
[8]
  MIC: 3.5 to 12.5 µg/mL
[9]
  MIC: < 1 µg/mL
[10]
  MIC: 3.5 to 12.5 µg/mL
[11]
  MIC: 3.5 to 12.5 µg/mL
[12]
  MIC: < 1 µg/mL
[13]
  MIC: < 1 µg/mL
[14]
  MIC: < 1 µg/mL

## CCc1c(-c2ccc3c(c2)cc(CNC2CC2)n3C)[nH]c(=O)c(C(=O)O)c1O.Cl [Cpd 228, 6-(2-((cyclopropylamino)methyl)-1-methyl-1H-indol-5-yl)-5-ethyl-4-hydroxy-2-oxo-1,2-dihydropyridine-3-carboxylic acid hydrochloride]
[1]
  MIC: 3.5 to 12.5 µg/mL
[2]
  MIC: < 1 µg/mL
[3]
  MIC: 1 to 3.5 µg/mL
[4]
  MIC: 12.5 to 150 µg/mL
[5]
  MIC: 1 to 3.5 µg/mL
[6]
  MIC: < 1 µg/mL
[7]
  MIC: 1 to 3.5 µg/mL
[8]
  MIC: 3.5 to 12.5 µg/mL
[9]
  MIC: < 1 µg/mL
[10]
  MIC: 1 to 3.5 µg/mL
[11]
  MIC: 3.5 to 12.5 µg/mL
[12]
  MIC: < 1 µg/mL
[13]
  MIC: < 1 µg/mL
[14]
  MIC: < 1 µg/mL

## CCc1c(-c2ccc3c(c2)cc(CNC2CCCC2)n3C)[nH]c(=O)c(C(=O)O)c1O.Cl [Cpd 229, 6-(2-((cyclopentylamino)methyl)-1-methyl-1H-indol-5-yl)-5-ethyl-4-hydroxy-2-oxo-1,2-dihydropyridine-3-carboxylic acid hydrochloride]
[1]
  MIC: 3.5 to 12.5 µg/mL
[2]
  MIC: < 1 µg/mL
[3]
  MIC: 1 to 3.5 µg/mL
[4]
  MIC: 12.5 to 150 µg/mL
[5]
  MIC: 3.5 to 12.5 µg/mL
[6]
  MIC: < 1 µg/mL
[7]
  MIC: 3.5 to 12.5 µg/mL
[8]
  MIC: 12.5 to 150 µg/mL
[9]
  MIC: < 1 µg/mL
[10]
  MIC: < 1 µg/mL
[11]
  MIC: 3.5 to 12.5 µg/mL
[12]
  MIC: < 1 µg/mL
[13]
  MIC: < 1 µg/mL
[14]
  MIC: < 1 µg/mL

## CCc1c(-c2ccc3c(c2)cc(CNCC2CCCN2CC)n3C)[nH]c(=O)c(C(=O)O)c1O.Cl.Cl (stereo not drawn) [Cpd 230, 5-ethyl-6-(2-(((1-ethylpyrrolidin-2-yl)methylamino)methyl)-1-methyl-1H-indol-5-yl)-4-hydroxy-2-oxo-1,2-dihydropyridine-3-carboxylic acid dihydrochloride]
[1]
  MIC: 12.5 to 150 µg/mL
[2]
  MIC: 1 to 3.5 µg/mL
[3]
  MIC: 12.5 to 150 µg/mL
[4]
  MIC: 12.5 to 150 µg/mL
[5]
  MIC: 3.5 to 12.5 µg/mL
[6]
  MIC: 3.5 to 12.5 µg/mL
[7]
  MIC: 12.5 to 150 µg/mL
[8]
  MIC: 12.5 to 150 µg/mL
[9]
  MIC: 12.5 to 150 µg/mL
[10]
  MIC: 1 to 3.5 µg/mL
[11]
  MIC: 12.5 to 150 µg/mL
[12]
  MIC: < 1 µg/mL
[13]
  MIC: 3.5 to 12.5 µg/mL
[14]
  MIC: 3.5 to 12.5 µg/mL

## CCc1c(-c2ccc3c(c2)cc(CNCC2CCCN(C)C2)n3C)[nH]c(=O)c(C(=O)O)c1O.Cl.Cl (stereo not drawn) [Cpd 231, 5-ethyl-4-hydroxy-6-(1-methyl-2-(((1-methylpiperidin-3-yl)methylamino)methyl)-1H-indol-5-yl)-2-oxo-1,2-dihydropyridine-3-carboxylic acid dihydrochloride]
[1]
  MIC: 12.5 to 150 µg/mL
[2]
  MIC: 1 to 3.5 µg/mL
[3]
  MIC: 12.5 to 150 µg/mL
[4]
  MIC: 12.5 to 150 µg/mL
[5]
  MIC: 1 to 3.5 µg/mL
[6]
  MIC: 1 to 3.5 µg/mL
[7]
  MIC: 12.5 to 150 µg/mL
[8]
  MIC: 12.5 to 150 µg/mL
[9]
  MIC: 3.5 to 12.5 µg/mL
[10]
  MIC: 1 to 3.5 µg/mL
[11]
  MIC: 12.5 to 150 µg/mL
[12]
  MIC: < 1 µg/mL
[13]
  MIC: 1 to 3.5 µg/mL
[14]
  MIC: 3.5 to 12.5 µg/mL

## CCc1c(-c2ccc3c(c2)cc(CNC2CCC2)n3C)[nH]c(=O)c(C(=O)O)c1O.Cl [Cpd 232, 6-(2-((cyclobutylamino)methyl)-1-methyl-1H-indol-5-yl)-5-ethyl-4-hydroxy-2-oxo-1,2-dihydropyridine-3-carboxylic acid hydrochloride]
[1]
  MIC: 3.5 to 12.5 µg/mL
[2]
  MIC: < 1 µg/mL
[3]
  MIC: 1 to 3.5 µg/mL
[4]
  MIC: 12.5 to 150 µg/mL
[5]
  MIC: 1 to 3.5 µg/mL
[6]
  MIC: < 1 µg/mL
[7]
  MIC: 3.5 to 12.5 µg/mL
[8]
  MIC: 3.5 to 12.5 µg/mL
[9]
  MIC: < 1 µg/mL
[10]
  MIC: 1 to 3.5 µg/mL
[11]
  MIC: 3.5 to 12.5 µg/mL
[12]
  MIC: < 1 µg/mL
[13]
  MIC: < 1 µg/mL
[14]
  MIC: < 1 µg/mL
